Measurements from patent US20210215710A1, “METHODS FOR USE OF CDX2 AS A BIOMARKER TO GUIDE USE OF AUTOPHAGY INHIBITORS IN OVARIAN CANCER” (UNIVERSITY HEALTH NETWORK, priority 2019, published 2021).

Legend:
[1] = tested on: CDX2(+) derived cell lines D4 and B2; test: Long-term nutritional deprivation, cellular survival of cell colonies in vitro; assay type: cell-based
Description: FIG. 6A depicts bar graphs that illustrate the long-term effect of nutritional deprivation on cellular survival in CDX2(−) and CDX2(+) cell colonies in vitro and the effect of treatment with autophagy inhibitors. […] P<0.001.

OVCA429 CDX2 = test: cells; settings: Homo sapiens, OVCA429, 48 h, read-out: 48 h IC50 CQ in adherent culture
Description: (§1) FIG. 7 depicts bar graphs that illustrate the results of an OVCA429 soft agar assay. […] This confirms the effect in human high grade serous ovarian cancer cells. […] CDX2(−) at left. […] P<0.005.

OVCA429 GAL (CDX2(−)) = test: cells; settings: Homo sapiens, OVCA429, 48 h, read-out: 48 h IC50 CQ in adherent culture
Description: as §1

[2] = tested on: CDX2(+) ovarian tumours in mice; test: Survival of mice with ovarian tumours treated with chloroquine; assay type: in vivo, mouse; settings: chloroquine 10 mg/kg 3 times a week, initiated 30 days after delivery of tumor cells
Description: For all experiments aged females (9-10 month) were used, as these represent targeted patient population (e.g., peri-menopausal women). Mice were sacrificed when ascites formed.

[3] = tested on: CDX2(+) ovarian cancer cells; test: Hanging drop assay under starvation conditions; assay type: cell-based, mouse
Description: FIG. 3A depicts a CDX2(−) parental control. FIGS. 3B and 3C depict CDX2(+) derived cell lines. The mouse ovarian cancer cell line MOSEC5 that is CDX2(−) was genetically modified to create CDX2(+) derived cell lines. Cells were placed in a “hanging drop” assay under starvation conditions.

Cdx2-expressing cells = test: Expression of autophagy genes after chloroquine in Cdx2-expressing cells; assay type: cell-based

Row | SMILES | survival of CDX2(+) cells after long-term stress [1] | IC50 (OVCA429 CDX2) [µM] | IC50 (OVCA429 GAL (CDX2(−))) [µM] | survival of mice [2] | survival of mice ([2]; listed as Chloroquine) | cancer cell survival [3] | inhibition of autophagy [3] | LAM P1 gene expression (Cdx2-expressing cells) | NPC gene expression (Cdx2-expressing cells) | SQSTM1 gene expression (Cdx2-expressing cells) | ULK2 gene expression (Cdx2-expressing cells) | WIPI1 gene expression (Cdx2-expressing cells)
1 | Cn1cnc(N)c2ncnc1-2 [3-methyladenine] | reverse this survival |  |  |  |  |  |  |  |  |  |  | 
2 | CCN(CC)CCCC(C)Nc1ccnc2cc(Cl)ccc12 (stereo not shown) [chloroquine] | reverse this survival | 9.3 | 11.5 | prolongs survival of mice with ovarian tumours | improved survival in CDX2(+) mice | reduce cancer cell survival | did inhibit autophagy | down-regulated | significantly up-regulated | significantly up-regulated | down-regulated | significantly up-regulated
